Source: the supplement of paper PMC10307832

Legend:
Assay in all cases: relative viability (nuclei count vs DMSO), 5 days (fraction); higher = more cells survive
201T = system: 201T
In short: (§1)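 Cells from lung cancer lines were seeded into 1536-well plates and, one day later, dosed by pin tool. Treatments were either a single drug or a fixed dose of an anchor drug with five library-drug doses (not always all listed) in √10 steps. After 5 days, nuclei were stained in a one-step fixation (final 0.05% Triton X-100, 1% formaldehyde, 1 ug/ml Hoechst) and counted on 4× images, and relative viability is the treated-to-vehicle nuclei ratio, as the median of duplicate plates.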

A-427 = system: A-427
In short: as §1

BEN = system: BEN
In short: as §1

COR-L23 = system: COR-L23
In short: as §1

EKVX = system: EKVX
In short: as §1

HARA = system: HARA
In short: as §1

HCC-15 = system: HCC-15
In short: as §1

HCC-44 = system: HCC-44
In short: as §1

HCC-827 = system: HCC-827
In short: as §1

NCI-H1437 = system: NCI-H1437
In short: as §1

NCI-H1792 = system: NCI-H1792
In short: as §1

NCI-H1975 = system: NCI-H1975
In short: as §1

NCI-H23 = system: NCI-H23
In short: as §1

NCI-H358 = system: NCI-H358
In short: as §1

NCI-H441 = system: NCI-H441
In short: as §1

NCI-H596 = system: NCI-H596
In short: as §1

NCI-H650 = system: NCI-H650
In short: as §1

NCI-H838 = system: NCI-H838
In short: as §1

SK-MES-1 = system: SK-MES-1
In short: as §1

CC(=O)O[C@@]12CO[C@@H]1C[C@H](O)[C@@]1(C)C(=O)[C@H](O)C3=C(C)[C@@H](OC(=O)[C@H](O)[C@@H](NC(=O)OC(C)(C)C)c4ccccc4)C[C@@](O)([C@@H](OC(=O)c4ccccc4)[C@H]21)C3(C)C [Docetaxel] + C[C@]1(O)C[C@@H](c2nc(-c3ccc4ccc(-c5ccccc5)nc4c3)c3c(N)nccn32)C1 [Linsitinib] (partner 1 µM)
relative viability (201T; first compound 0.0002 µM): 1.04
relative viability (201T; first compound 0.000632 µM): 1.07
relative viability (201T; first compound 0.002 µM): 0.944
relative viability (201T; first compound 0.006325 µM): 0.48
relative viability (201T; first compound 0.02 µM): 0.284
relative viability (A-427; first compound 0.0002 µM): 1.09
relative viability (A-427; first compound 0.000632 µM): 1.12
relative viability (A-427; first compound 0.002 µM): 1.02
relative viability (A-427; first compound 0.02 µM): 0.227
relative viability (BEN; first compound 0.0002 µM): 0.827
relative viability (BEN; first compound 0.000632 µM): 0.812
relative viability (BEN; first compound 0.002 µM): 0.473
relative viability (BEN; first compound 0.006325 µM): 0.246
relative viability (BEN; first compound 0.02 µM): 0.189
relative viability (COR-L23; first compound 0.0002 µM): 0.813
relative viability (COR-L23; first compound 0.000632 µM): 0.722
relative viability (COR-L23; first compound 0.002 µM): 0.259
relative viability (COR-L23; first compound 0.006325 µM): 0.101
relative viability (COR-L23; first compound 0.02 µM): 0.0798
relative viability (EKVX; first compound 0.0002 µM): 0.899
relative viability (EKVX; first compound 0.000632 µM): 0.804
relative viability (EKVX; first compound 0.002 µM): 0.427
relative viability (EKVX; first compound 0.006325 µM): 0.23
relative viability (EKVX; first compound 0.02 µM): 0.115
relative viability (HARA; first compound 0.0002 µM): 0.739
relative viability (HARA; first compound 0.000632 µM): 0.482
relative viability (HARA; first compound 0.002 µM): 0.235
relative viability (HARA; first compound 0.006325 µM): 0.0978
relative viability (HARA; first compound 0.02 µM): 0.0632
relative viability (HCC-15; first compound 0.0002 µM): 0.765
relative viability (HCC-15; first compound 0.000632 µM): 0.479
relative viability (HCC-15; first compound 0.002 µM): 0.227
relative viability (HCC-15; first compound 0.006325 µM): 0.244
relative viability (HCC-15; first compound 0.02 µM): 0.162
relative viability (HCC-44; first compound 0.0002 µM): 0.608
relative viability (HCC-44; first compound 0.000632 µM): 0.747
relative viability (HCC-44; first compound 0.002 µM): 0.589
relative viability (HCC-44; first compound 0.006325 µM): 0.201
relative viability (HCC-44; first compound 0.02 µM): 0.106
relative viability (HCC-827; first compound 0.0002 µM): 0.971
relative viability (HCC-827; first compound 0.000632 µM): 0.927
relative viability (HCC-827; first compound 0.002 µM): 0.892
relative viability (HCC-827; first compound 0.006325 µM): 0.438
relative viability (HCC-827; first compound 0.02 µM): 0.347
relative viability (NCI-H1437; first compound 0.0002 µM): 0.964
relative viability (NCI-H1437; first compound 0.000632 µM): 0.805
relative viability (NCI-H1437; first compound 0.006325 µM): 0.124
relative viability (NCI-H1437; first compound 0.02 µM): 0.0906
relative viability (NCI-H1792; first compound 0.0002 µM): 0.539
relative viability (NCI-H1792; first compound 0.000632 µM): 0.509
relative viability (NCI-H1792; first compound 0.002 µM): 0.379
relative viability (NCI-H1792; first compound 0.02 µM): 0.0833
relative viability (NCI-H1975; first compound 0.0002 µM): 0.861
relative viability (NCI-H1975; first compound 0.000632 µM): 0.962
relative viability (NCI-H1975; first compound 0.002 µM): 0.309
relative viability (NCI-H1975; first compound 0.006325 µM): 0.189
relative viability (NCI-H1975; first compound 0.02 µM): 0.161
relative viability (NCI-H23; first compound 0.0002 µM): 0.579
relative viability (NCI-H23; first compound 0.000632 µM): 0.572
relative viability (NCI-H23; first compound 0.002 µM): 0.465
relative viability (NCI-H23; first compound 0.006325 µM): 0.22
relative viability (NCI-H23; first compound 0.02 µM): 0.126
relative viability (NCI-H358; first compound 0.0002 µM): 0.63
relative viability (NCI-H358; first compound 0.000632 µM): 0.371
relative viability (NCI-H358; first compound 0.002 µM): 0.206
relative viability (NCI-H358; first compound 0.02 µM): 0.136
relative viability (NCI-H441; first compound 0.0002 µM): 0.405
relative viability (NCI-H441; first compound 0.000632 µM): 0.27
relative viability (NCI-H441; first compound 0.002 µM): 0.172
relative viability (NCI-H441; first compound 0.006325 µM): 0.224
relative viability (NCI-H441; first compound 0.02 µM): 0.117
relative viability (NCI-H596; first compound 0.0002 µM): 1.02
relative viability (NCI-H596; first compound 0.000632 µM): 0.953
relative viability (NCI-H596; first compound 0.002 µM): 0.754
relative viability (NCI-H596; first compound 0.006325 µM): 0.761
relative viability (NCI-H596; first compound 0.02 µM): 0.437
relative viability (NCI-H650; first compound 0.0002 µM): 0.657
relative viability (NCI-H650; first compound 0.000632 µM): 0.341
relative viability (NCI-H650; first compound 0.002 µM): 0.312
relative viability (NCI-H650; first compound 0.006325 µM): 0.255
relative viability (NCI-H650; first compound 0.02 µM): 0.152
relative viability (NCI-H838; first compound 0.0002 µM): 0.98
relative viability (NCI-H838; first compound 0.000632 µM): 1.1
relative viability (NCI-H838; first compound 0.002 µM): 0.247
relative viability (NCI-H838; first compound 0.006325 µM): 0.166
relative viability (NCI-H838; first compound 0.02 µM): 0.145
relative viability (SK-MES-1; first compound 0.0002 µM): 1.05
relative viability (SK-MES-1; first compound 0.000632 µM): 0.967
relative viability (SK-MES-1; first compound 0.002 µM): 0.634
relative viability (SK-MES-1; first compound 0.006325 µM): 0.26
relative viability (SK-MES-1; first compound 0.02 µM): 0.177
